Data taken from patent US20250319034A1, “MICROSPHERE PRODUCTION METHOD” (VITALTE LIFESCIENCES INC., priority 2024, published 2025).

Assay: T release study in saline incubation media
Type: physicochemical
Settings: saline incubation media, 2, 4 and 6 hours
Protocol: In order to compare the release rate results of hydrogel encapsulated T to pelleted T, larger gels had to be prepared as the T pellets which the hydrogels are intended to replace are 25 mg, where the E2 pellets are merely 6 mg. Thus, approximately 83 mg of hydrogel at 30% T loading and 1% HA were prepared. In order to achieve even or consistent crosslinking in these much larger hydrogel samples, Likarda's patented micromolds (shown in FIG. 21) were employed. After formation, the encapsulated T was removed from the molds and placed in tubes to be rotated for an hour. The encapsulated T hydrogels were then removed from the tubes and stored in Dulbecco's PBS buffer. The large hydrogel blocks encapsulating T were then tested and compared to 25 mg T pellets and micronized T powder.
The T powder was produced as a 2.5 mg/mL slurry in buffer to reach the near saturation point of T in the buffer. Samples of the T powder slurry were removed from only the top layer of the slurry fluid to avoid aspirating T particles in the slurry that may have precipitated at to the bottom. T pellets were collected directly from the vials in which they were stored. The 83 mg hydrogels containing 30% T were collected from Dulbecco's PBS buffer, rinsed, and dried. Each of the collected samples was then placed in a separate container of incubation media (saline in this instance) for the release studies. […]

## C[C@]12CC[C@H]3[C@@H](CCC4=CC(=O)CC[C@@]43C)[C@@H]1CC[C@@H]2O [T powder, Testosterone]
  approximate saturation level of T in saline: about 1.5 mg/L
